From US20090318493A1 (Roche Palo Alto LLC, priority 2008, published 2009)
pIC50: −log10 of the molar value. Like-named read-outs stand apart in the source and are kept apart here.

Legend:
Assay type in all cases: binding
hSERT transporter = target: T1, hSERT transporter (Homo sapiens, UniProt P31645); assay: Human serotonin transporter (hSERT) scintillation proximity assay, competition with [3H]-Citalopram; conditions: for IC50: Table 1, read-out: pIC50 SERT (converted)
T1 construct: expressed in transfected cells; membranes prepared
Excerpt: Screening for Human Serotonin Transporter (hSERT) Antagonists Using a Scintillation Proximity Assay (SPA)
The screening assay of this example was used to determine the affinity of ligands at the hSERT transporter by competition with [^3H]-Citalopram.
Scintillation Proximity Assay (SPA) works by bringing radioligand within close proximity to the bead's scintillant to stimulate light emission. In this assay, the receptor-containing membranes were pre-coupled to the SPA beads and the binding of the appropriate radioligand to the transporter was measured. The light emission was proportional to the amount of bound radioligand. Unbound radioligand produced no signal as a result of distant proximity to scintillant (lack of energy transfer).
Cells are released from culture flasks using PBS for 1-2 minutes. The cells were subsequently centrifuged at 1000 g's for 5 minutes and resuspended in PBS prior to being used in the membrane preparation.
(§1) Cell membranes were prepared using a membrane preparation buffer of 50 mM TRIS (pH 7.4). Cell membranes were prepared from a single cube (7.5×10^9 cells total). Cells were homogenized using a Polytron (setting medium for a 4 second burst). The homogenate was then centrifuged at 48,000×g for 15 minutes, the supernatant subsequently removed and discarded, and the pellet resuspended with fresh buffer. After a second centrifugation, the pellet was re-homogenized and brought to a final volume determined during the assay. Typically, membrane portions were aliquoted in 3 mg/ml (w:v). and stored at −80° C.
Compounds of the invention were diluted from 10 mM to 0.1 nM FAC (10 point curves, whole log/half log dilutions) via a Beckman Biomek 2000 using a serial dilution protocol. The test compounds were then transferred (20 μl/well) and the [^3H]-Citalopram radioligand was added at 50 μl/well. Membrane and beads were prepared to a ratio of 10 μg: 0.7 mg, with 0.7 mg PVT-WGA Amersham beads (Cat# RPQ0282V) added per well. 130 μl of the membrane: bead mixture was added to the assay plate.
The % inhibition was calculated for each compound tested [(Compound counts per minute (CPM) at maximum concentration-Non-Specific CPM)/Total CPM*100].
(§2) where max=total binding, min=non specific binding, x=concentration (M) of the tested compound and n=Hill slope. The inhibition dissociation constant (Ki) of each compound was determined according to the method of Cheng-Prusoff and then converted into negative logarithm (pKi) of the Ki.

hNET transporter = target: T2, hNET transporter (Homo sapiens, UniProt P23975); assay: Human norepinephrine transporter (hNET) scintillation proximity assay, competition with [3H]-Nisoxetine; conditions: for IC50: Table 1, read-out: pIC50 NET (converted)
T2 construct: expressed in transfected cells; membranes prepared
Description: This assay was used to determine the affinity of ligands for the hNET transporter by competition with [^3H]-Nisoxetine. As in the hSERT assay of the above example, receptor-containing membranes were pre-coupled to the SPA beads and the binding of the appropriate radioligand to the transporter was measured. The light emission was proportional to the amount of bound radioligand, with unbound radioligand producing no signal.
HEK-293 cells (Tatsumi et al., Eur. J. Pharmacol. 1997, 30, 249-258) stably expressing recombinant hNET (Clone: HEK-hNET #2) were maintained with media (DMEM hi glucose with 10% FBS, 300 μg/ml G418 and 2 mM L-Glutamine) and incubated at 37° C. with 5% CO2. Cells were released from culture flasks using PBS for 1-2 minutes. The cells were subsequently centrifuged at 1000 g's for 5 minutes and resuspended in PBS prior to being used in the membrane preparation.
as §1, with “(7.5×10^9cells” for “(7.5×10^9 cells”, “3-6 mg/mil” for “3 mg/ml”
^3[H] […] Compounds of the invention were diluted from 10 mM to 0.1 nM FAC (10 point curves, whole log /half log dilutions) via a Beckman Biomek 2000 using a serial dilution protocol. The test compounds were then transferred (20 μl/well) and the radioligand was added at 50 μl/well. Membrane and beads were prepared to a ratio of 10 μg: 0.7 mg, with 0.7 mg PVT-WGA Amersham beads (Cat# RPQ0282V) added per well. 130 μl of the membrane: bead mixture was added to the assay plate. The mixtures were allowed to stand at room temperature for one hour, and were then counted on a Packard TopCount LCS, a generic SPA counting protocol settings (Energy Range: Low, Efficiency Mode: Normal, Region A: 1.50-35.00, Region B: 1.50-256.00, Count Time (min.): 0.40, Background Subtract: none, Half-Life Correction: no, Quench Indicator: tSIS, Platemap blank subtraction: No, Cross talk reduction: Off).
The % inhibition was calculated for each compound tested [(Compound CPM at maximum concentration-Non-Specific CPM)/Total CPM*100]. The concentration producing 50% inhibition (IC50) was determined using an iterative non-linear curve fitting technique with Activity Base/Xlfit using the following equation:
as §2

hDAT = target: T3, hDAT (Homo sapiens, UniProt Q01959); assay: Human dopamine transporter scintillation proximity assay, competition with [3H]-Vanoxerine; conditions: for IC50: Table 1, read-out: pIC50 DAT (converted)
T3 construct: expressed in transfected cells; plated whole cells
Description: This assay was used to determine the affinity of ligands for the dopamine transporter by competition with [^3H]-Vanoxerine.
Cells were plated four hours prior to experiment by placing approximately 30,000 cells per well (in PBS) on white, opaque Cell-Tak coated 96 well plates. Extra buffer was apriated from the cell plates using an ELx405 plate washer.
Compounds of the invention were diluted from 10 mM to 0.1 nM FAC (10 point curves, whole log/half log dilutions) via a Beckman Biomek 2000 using a 10-point dilution protocol. The mixtures were allowed to stand at room temperature for 30 minutes, and were then counted on a Packard TopCount LCS, a generic SPA counting protocol settings, Count Time (min.): 0.40, Background Subtract: none, Half-Life Correction: none, Quench Indicator: tSIS, Platemap blank subtraction: none, Cross talk reduction: Off).
The % inhibition was calculated for each compound tested [(Compound CPM at maximum concentration-Non-Specific CPM)/Total CPM*100].
as §2

T3 sequence (Q01959 whole entry): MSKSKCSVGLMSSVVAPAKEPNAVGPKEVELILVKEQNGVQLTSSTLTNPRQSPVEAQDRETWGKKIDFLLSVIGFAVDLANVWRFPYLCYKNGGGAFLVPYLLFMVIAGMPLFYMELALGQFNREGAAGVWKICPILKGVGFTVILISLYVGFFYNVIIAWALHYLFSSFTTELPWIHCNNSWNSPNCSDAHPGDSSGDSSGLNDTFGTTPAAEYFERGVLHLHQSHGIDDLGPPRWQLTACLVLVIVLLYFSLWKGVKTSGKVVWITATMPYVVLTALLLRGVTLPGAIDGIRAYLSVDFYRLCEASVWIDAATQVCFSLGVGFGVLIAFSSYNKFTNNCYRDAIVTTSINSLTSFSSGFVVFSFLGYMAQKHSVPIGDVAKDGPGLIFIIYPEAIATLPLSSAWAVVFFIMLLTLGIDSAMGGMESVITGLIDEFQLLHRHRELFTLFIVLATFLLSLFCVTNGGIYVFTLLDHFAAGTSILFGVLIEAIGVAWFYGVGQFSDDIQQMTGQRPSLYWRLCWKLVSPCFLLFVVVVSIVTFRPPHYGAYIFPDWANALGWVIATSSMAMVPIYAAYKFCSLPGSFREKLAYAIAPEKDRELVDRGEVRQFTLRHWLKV
T2 sequence (P23975 whole entry): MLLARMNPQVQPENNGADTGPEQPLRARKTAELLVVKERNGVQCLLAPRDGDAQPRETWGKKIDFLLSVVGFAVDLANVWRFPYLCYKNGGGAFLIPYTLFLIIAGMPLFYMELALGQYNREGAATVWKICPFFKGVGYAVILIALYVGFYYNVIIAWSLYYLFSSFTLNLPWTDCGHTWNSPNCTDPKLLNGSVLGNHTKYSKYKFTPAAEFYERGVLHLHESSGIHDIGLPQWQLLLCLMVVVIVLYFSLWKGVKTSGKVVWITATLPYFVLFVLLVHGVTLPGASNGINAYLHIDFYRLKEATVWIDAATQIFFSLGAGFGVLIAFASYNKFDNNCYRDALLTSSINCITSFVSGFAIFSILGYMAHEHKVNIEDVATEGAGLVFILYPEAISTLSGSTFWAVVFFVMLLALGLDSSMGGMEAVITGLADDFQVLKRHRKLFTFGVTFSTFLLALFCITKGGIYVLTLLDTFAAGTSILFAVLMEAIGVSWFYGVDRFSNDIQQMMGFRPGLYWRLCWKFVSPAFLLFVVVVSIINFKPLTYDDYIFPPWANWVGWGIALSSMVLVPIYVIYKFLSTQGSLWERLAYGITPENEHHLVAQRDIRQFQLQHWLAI
T1 sequence (P31645 whole entry): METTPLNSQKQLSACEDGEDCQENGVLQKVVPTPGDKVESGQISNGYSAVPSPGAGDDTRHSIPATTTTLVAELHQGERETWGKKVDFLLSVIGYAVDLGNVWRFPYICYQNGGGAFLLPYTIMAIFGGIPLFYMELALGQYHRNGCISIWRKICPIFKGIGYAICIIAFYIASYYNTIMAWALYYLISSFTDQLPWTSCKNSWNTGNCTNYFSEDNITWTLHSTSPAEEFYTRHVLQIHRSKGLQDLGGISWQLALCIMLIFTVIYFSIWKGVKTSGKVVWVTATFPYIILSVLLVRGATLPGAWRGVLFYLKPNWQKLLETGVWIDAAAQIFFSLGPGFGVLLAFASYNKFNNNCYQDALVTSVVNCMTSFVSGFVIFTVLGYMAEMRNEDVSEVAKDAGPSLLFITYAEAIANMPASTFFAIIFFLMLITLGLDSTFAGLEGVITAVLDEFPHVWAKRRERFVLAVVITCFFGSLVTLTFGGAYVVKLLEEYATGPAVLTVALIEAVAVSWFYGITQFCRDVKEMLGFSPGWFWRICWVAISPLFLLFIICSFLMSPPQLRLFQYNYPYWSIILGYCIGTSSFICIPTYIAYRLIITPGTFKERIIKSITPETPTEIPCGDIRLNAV

CCCC[C@@]1(C(=O)c2ccc(Cl)c(Cl)c2)CC[C@@H]2CC[C@H]1N2C (mixture of isomers) [Compound 54, ((1R,2R,SR)-2-Butyl-8-methyl-8-aza-bicyclo[3.2.1]oct-2-yl)-(3,4-dichloro-phenyl)-methanone] was tested, and the pIC50 (hSERT transporter) was 6.48, the IC50 (hNET transporter) was 501 nM and the pIC50 (hDAT) was 7.55.
For CC(C)CC1(C(=O)c2cc(F)c(N)c(Cl)c2)CCNC1 (stereo in doubt) [Compound 24, (4-Amino-3-chloro-5-fluoro-phenyl)-((R)-3-isobutyl-pyrrolidin-3-yl)-methanone], the pIC50 (hSERT transporter) was 7.61, the IC50 (hNET transporter) was 20 nM and the pIC50 (hDAT) was 7.60.
Molecule CCCC1(C(=O)c2ccc(Cl)c(Oc3ccccc3)c2)CCNC1 (stereo in doubt) [Compound 29, (4-Chloro-3-phenoxy-phenyl)-((S)-3-propyl-pyrrolidin-3-yl)-methanone] has a pIC50 (hSERT transporter) of 7.88, an IC50 (hNET transporter) of 2.63 nM and a pIC50 (hDAT) of 7.98.
Work on CCCC1(C(=O)c2ccc(Cl)c(Oc3ccccc3)c2)CCNC1 (stereo in doubt) [Compound 30, (4-Chloro-3-phenoxy-phenyl)-((R)-3-propyl-pyrrolidin-3-yl)-methanone] yielded a pIC50 (hSERT transporter) of 7.73, an IC50 (hNET transporter) of 24 nM and a pIC50 (hDAT) of 8.63.
In the case of Cc1cc(C(=O)C2(CCC(C)(C)C)CCNC2)ccc1Cl (stereo not shown) [Compound 1, (4-Chloro-3-methyl-phenyl)-[3-(3,3-dimethyl-butyl)-pyrrolidin-3-yl]-methanone], the pIC50 (hSERT transporter) was 8.82, the IC50 (hNET transporter) was 5.5 nM and the pIC50 (hDAT) was 8.20.
CC(C)C[C@@]1(C(=O)c2ccc(Cl)c(Cl)c2N)CCNC1 [Compound 2, (2-Amino-3,4-dichloro-phenyl)-((R)-3-isobutyl-pyrrolidin-3-yl)-methanone] was tested, and the pIC50 (hSERT transporter) was 8.66, the pIC50 (hNET transporter) was 7.42 and the IC50 (hDAT) was 692 nM.
CCCC[C@]1(C(=O)c2ccc(Cl)c(Cl)c2N)CC2CC[C@H]1N2 [Compound 3] showed a pIC50 (hSERT transporter) of 7.08, an IC50 (hNET transporter) of 182 nM and a pIC50 (hDAT) of 7.15.
CC(C)(C)CCOc1cc(C(=O)C2(CCC(C)(C)C)CCNC2)ccc1Cl (stereo not shown) [Compound 4, [4-Chloro-3-(3,3-dimethyl-butoxy)-phenyl]-[3-(3,3-dimethyl-butyl)-pyrrolidin-3-yl]-methanone] gave an IC50 (hSERT transporter) of 85.1 nM, an IC50 (hNET transporter) of 912 nM and an IC50 (hDAT) of 1000 nM.
CC(C)(C)CCC1(C(=O)c2ccc(Cl)c(OCc3ccccc3)c2)CCNC1 (stereo not shown) [Compound 5, (3-Benzyloxy-4-chloro-phenyl)-[3-(3,3-dimethyl-butyl)-pyrrolidin-3-yl]-methanone] showed an IC50 (hNET transporter) of 363 nM and an IC50 (hDAT) of 1450 nM.
COC(C)(C)CCC1(C(=O)c2cc(F)c3[nH]ccc3c2)CCNC1 (stereo not shown) [Compound 6] showed a pIC50 (hSERT transporter) of 8.97, an IC50 (hNET transporter) of 4.79 nM and a pIC50 (hDAT) of 7.81.
In the case of CC(C)(C)CCC1(C(=O)c2cc(Cl)c(N)c(C(F)(F)F)c2)CCNC1 (stereo not shown) [Compound 7, (4-Amino-3-chloro-5-trifluoromethyl-phenyl)-[3-(3,3-dimethyl-butyl)-pyrrolidin-3-yl]-methanone], the pIC50 (hSERT transporter) was 7.42, the pIC50 (hNET transporter) was 7.80 and the IC50 (hDAT) was 955 nM.
With CC(C)(C)CCC1(C(=O)c2ccc(Cl)c(Oc3ccc(F)cc3)c2)CCNC1 (stereo not shown) [Compound 8, [4-Chloro-3-(4-fluoro-phenoxy)-phenyl]-[3-(3,3-dimethyl-butyl)-pyrrolidin-3-yl]-methanone] the IC50 (hSERT transporter) was 120 nM, the IC50 (hNET transporter) was 77.6 nM and the IC50 (hDAT) was 1410 nM.
With CC(C)(C)CCC1(C(=O)c2ccc(Cl)c(Oc3ccccc3F)c2)CCNC1 (stereo not shown) [Compound 9, [4-Chloro-3-(2-fluoro-phenoxy)-phenyl]-[3-(3,3-dimethyl-butyl)-pyrrolidin-3-yl]-methanone] the IC50 (hNET transporter) was 45.7 nM and the IC50 (hDAT) was 1120 nM.
CCCC1(C(=O)c2ccc(Cl)c(OCc3ccccc3)c2)CCNC1 (stereo not shown) [Compound 10, (3-Benzyloxy-4-chloro-phenyl)-(3-propyl-pyrrolidin-3-yl)-methanone] gave a pIC50 (hSERT transporter) of 7.69 and an IC50 (hNET transporter) of 1700 nM.
With CCCC1(C(=O)c2ccc(Cl)c(OCCC(C)(C)C)c2)CCNC1 (stereo not shown) [Compound 11, [4-Chloro-3-(3,3-dimethyl-butoxy)-phenyl]-(3-propyl-pyrrolidin-3-yl)-methanone] the pIC50 (hSERT transporter) was 7.28, the IC50 (hNET transporter) was 631 nM and the IC50 (hDAT) was 1480 nM.
In the case of CCCC1(C(=O)c2ccc(Cl)c(OCC3CCOCC3)c2)CCNC1 (stereo not shown) [Compound 13, [4-Chloro-3-(tetrahydro-pyran-4-ylmethoxy)-phenyl]-(3-propyl-pyrrolidin-3-yl)-methanone], the IC50 (hSERT transporter) was 145 nM.
For CCCC1(C(=O)c2ccc(Cl)c(OC(F)(F)F)c2)CCNC1 (stereo not shown) [Compound 14, (4-Chloro-3-trifluoromethoxy-phenyl)-(3-propyl-pyrrolidin-3-yl)-methanone], the pIC50 (hSERT transporter) was 8.56 and the IC50 (hNET transporter) was 302 nM.
In the case of CCCC1(C(=O)c2ccc(Br)c(Oc3ccccc3)c2)CCNC1 (stereo not shown) [Compound 20, (4-Bromo-3-phenoxy-phenyl)-(3-propyl-pyrrolidin-3-yl)-methanone], the pIC50 (hSERT transporter) was 7.90 and the IC50 (hNET transporter) was 7.94 nM.
CC[C@@]1(C(=O)c2ccc(Cl)c(Cl)c2)CC[C@@H]2CC[C@H]1N2C [Compound 53, (3,4-Dichloro-phenyl)-((1R,2R,5R)-2-ethyl-8-methyl-8-aza-bicyclo[3.2.1]oct-2-yl)-methanone] gave a pIC50 (hSERT transporter) of 7.38 and a pIC50 (hDAT) of 6.54.
In the case of CCCC1(C(=O)c2ccc(Cl)c(-c3cccnc3)c2)CCCNC1 (stereo not shown) [Compound 55, (4-Chloro-3-pyridin-3-yl-phenyl)-(3-propyl-piperidin-3-yl)-methanone], the IC50 (hSERT transporter) was 245 nM.
With CCCC1(C(=O)c2ccc(-n3ccnc3)c(Br)c2)CCCNC1 (stereo not shown) [Compound 57, (3-Bromo-4-imidazol-1-yl-phenyl)-(3-propyl-piperidin-3-yl)-methanone] the pIC50 (hSERT transporter) was 7.04 and the IC50 (hDAT) was 4270 nM.
With CCCC1(C(=O)c2ccc(Cl)c(-n3ccnc3)c2)CCCNC1 (stereo not shown) [Compound 58, (4-Chloro-3-imidazol-1-yl-phenyl)-(3-propyl-piperidin-3-yl)-methanone] the pIC50 (hSERT transporter) was 7.10 and the IC50 (hDAT) was 1480 nM.
In the case of CCCC1(C(=O)c2ccc3ccccc3c2)CCNC1 (stereo not shown) [naphthalen-2-yl-(3-propyl-pyrrolidin-3-yl)-methanone], the Ki (hSERT transporter; SPA, [3H]-Citalopram, approximate value, read-out: pKi human serotonin transporter (converted)) was roughly 0.151 nM.
